# According to patent US20160067209A1, “PTEROCARPAN COMPOUND OR PHARMACEUTICALLY ACCEPTABLE SALT THEREOF AND PHARMACEUTICAL COMPOSITION FOR PREVENTION OR TREATMENT OF METABOLIC DISEASE OR COMPLICATION THEREOF, OR FOR ANTIOXIDANT CONTAINING THE SAME AS AN ACTIVE INGREDIENT” (KOREA RESEARCH INSTITUTE OF BIOSCIENCE AND BIOTECHNOLOGY, priority 2010, published 2016):
# Tests used:
# hACAT-1 = target: T1, hACAT-1 (Homo sapiens, UniProt P35610); experiment: hACAT inhibitory activity, microsome fraction of Hi5 cells, [1-14C] oleoyl-CoA substrate; assay type: biochemical; settings: for inhibition at 100 µM: read-out: Inhibitory activity at 100 μM (%) hACAT1
# T1 construct: made in house; host or cells: Hi5 insect cells (baculovirus; virus produced in sf9), microsome fraction
# T1 sequence (P35610 1-550): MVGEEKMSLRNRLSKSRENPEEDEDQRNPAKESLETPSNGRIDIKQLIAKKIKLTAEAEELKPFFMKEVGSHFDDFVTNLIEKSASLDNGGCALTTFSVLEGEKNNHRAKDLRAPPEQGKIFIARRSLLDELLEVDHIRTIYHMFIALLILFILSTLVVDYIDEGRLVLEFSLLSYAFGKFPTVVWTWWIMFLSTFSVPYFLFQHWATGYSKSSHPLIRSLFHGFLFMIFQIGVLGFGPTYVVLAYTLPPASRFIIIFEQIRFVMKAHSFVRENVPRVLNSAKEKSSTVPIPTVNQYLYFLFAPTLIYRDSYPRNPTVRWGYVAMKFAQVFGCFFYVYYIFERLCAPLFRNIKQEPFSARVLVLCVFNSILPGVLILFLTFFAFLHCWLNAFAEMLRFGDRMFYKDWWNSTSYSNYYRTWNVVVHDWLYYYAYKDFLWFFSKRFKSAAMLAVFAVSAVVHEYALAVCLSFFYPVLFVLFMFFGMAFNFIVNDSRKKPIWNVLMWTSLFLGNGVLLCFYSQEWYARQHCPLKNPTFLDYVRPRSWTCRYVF
# Method: (§1) cDNA of each hACAT-1 and hACAT-2 obtained by human liver cDNA library screening was inserted into baculovirus vector, which was then introduced into the insect cell sf9 to produce target virus. The recombinant virus of each hACAT-1 and hACAT-2 was separated by plaque purification and then amplified three times to increase titer of viral stock.
# (§2) To separate microsome fractions from the cultured Hi5 cells over-expressing hACAT-1 and hACAT-2, centrifugation was performed at 500 rpm for 15 minutes. The collected cells were lysed by quick-freezing/quick-thawing in hypotonic buffer, followed by ultracentrifugation at 100,000 rpm for one hour. The obtained microsome fractions were suspended in hypotonic buffer to make the protein concentration to be 8 mg/ml, which was stored in −70° C. freezer until use.
# (§3) Human ACAT (hACAT) activity was measured by the method of Brecher & Chan (P. Brecher and C. Chan, Biochem. Biophys. Acta, 1980, 617: 458) with slight modification using [1-^14C] oleoyl-CoA (56.0 ρCi/μmol; Amersham) as a substrate. 10 μl of each of the pterocarpan compounds represented by Formula 2-Formula 5 obtained in Example 1 in dimethylsulfoxide (DMSO) was mixed with 4.0 μl of the microsome solution obtained in step 1, 20.0 μl a of assay buffer (0.5 M KH2PO4, 10 mM DTT, pH 7.4; Sigma), 15.0 μl of bovine serum albumin (BSA, stock solution conc. 40 mg/ml; Sigma), 2.0 μl of cholesterol (stock solution conc. 20 mg/ml; Sigma), and 41.0 μl of distilled water, followed by pre-reaction at 37° C. for 15 minutes. In this assay, the negative control was used the DMSO alone, and the positive control was used a known ACAT inhibitor, oleic acid anilide.
# (§4) Eight (8) μl of [1-^14C] oleoyl-CoA (0.05 μCi, final conc. 10.0 μM) was added to the above reaction mixture, followed by reaction at 37° C. for 30 minutes. The reaction was terminated by adding 1 ml of isopropanol:heptane mixed solution (4:1(v/v)). Six hundred (600) μl of heptane and 200 μl of 0.1 M KH2PO4 (pH 7.4) were added thereto and the reaction mixture was vortexed vigorously and centrifuged at 300 rpm for 5 minutes. The obtained upper phase (100 μl) was added in a scintillation vial, to which 4 ml of scintillation solution (Lipoluma, Lumac Co.) were added. Radioactivity of the upper phase was measured by 1450 Microbeta liquid scintillation counter (Wallacoy).
# (§5) hACAT activity was calculated based on the radioactivity, the amount of synthesized cholesteryl oleated, measured above and expressed as a defined unit, pico mole per 1 mg of protein for 1 minute (pico mole/minute/mg protein).
# hACAT-2 = target: T2, hACAT-2 (Homo sapiens, UniProt O75908); experiment: as above; assay type: biochemical; settings: read-out: Inhibitory activity at 100 μM (%) hACAT2
# T2 construct: made in house; host or cells: Hi5 insect cells (baculovirus; virus produced in sf9), microsome fraction
# T2 sequence (O75908 1-522): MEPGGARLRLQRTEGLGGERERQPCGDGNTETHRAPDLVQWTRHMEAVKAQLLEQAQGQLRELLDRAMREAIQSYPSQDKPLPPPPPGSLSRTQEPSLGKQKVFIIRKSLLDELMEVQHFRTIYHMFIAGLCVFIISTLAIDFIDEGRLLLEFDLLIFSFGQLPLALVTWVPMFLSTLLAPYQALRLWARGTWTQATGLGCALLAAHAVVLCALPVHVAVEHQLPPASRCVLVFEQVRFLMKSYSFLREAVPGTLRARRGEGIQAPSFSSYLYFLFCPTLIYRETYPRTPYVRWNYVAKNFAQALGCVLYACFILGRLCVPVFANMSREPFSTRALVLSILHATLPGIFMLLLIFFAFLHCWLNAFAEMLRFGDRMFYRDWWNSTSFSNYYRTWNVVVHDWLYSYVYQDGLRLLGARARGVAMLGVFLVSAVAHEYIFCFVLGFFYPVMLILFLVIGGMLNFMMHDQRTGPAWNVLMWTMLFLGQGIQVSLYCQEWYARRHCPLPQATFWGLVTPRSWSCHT
# Method: as §1, §2, §3, §4, §5
# LDL = LDL anti-oxidative activity, Cu-mediated LDL-oxidation, TBA method; assay type: biochemical, human; settings: CuSO4, 37° C., 4 hours, MDA by TBA; read-out: LDL-oxidation inhibitory activity (IC50)
# Method: Cu^2+ has been known to induce LDL-oxidation (Cu-mediated LDL-oxidation). In this invention, dialdehyde, the oxide of unsaturated fatty acid, generated during LDL-oxidation was measured by TBA (thiobarbituric acid) method to investigate the anti-oxidative activity of the pterocarpan compound isolated from soybean leaves (Packer, L. Ed. (1994) Methods in Enzymology Vol. 234, Oxygen radicals in biological systems Part D. Academic press, San Diego).
# Three hundred (300) ml of human plasma were centrifuged at 100,000×g for 24 hours to remove floating VLDL/chylomicron layer in upper part. The specific gravity of the remaining solution was adjusted to […], followed by re-centrifugation at 100,000×g for 24 hours, and 25 ml of the floating LDL (1.5-2.5 mg protein/ml) in upper layer was separated.
# Twenty (20) μl of the separated LDL (protein conc. 50-100 μg/ml) was mixed with 210 μl of 10 mM PBS, to which 10 μl of each of the pterocarpan compounds represented by Formula 2-Formula 5 of the present invention was added respectively.
# The pterocarpan compounds were dissolved in DMSO, which were further diluted properly for the experiment. In this assay, the negative control was used the DMSO only, while the positive control was used a known LDL-antioxidant, probucol.
# Ten (10) μl of 0.25 mM CuSO4 was added to the above reaction mixture, followed by reaction at 37° C. for 4 hours. The reaction was terminated by adding 1 ml of 20% trichloroacetic acid (TCA) solution. One (1) ml of 0.67% thiobarbituric acid (TBA) dissolved in 0.05 N NaOH solution was added thereto, followed by stirring for 10 seconds. Then, the reaction mixture was heated at 95° C. for 5 minutes to induce color development. The solution was cooled down with iced water and centrifuged at 3,000 rpm for 5 minutes to separate supernatant. The amount of malondialdehyde (MDA) generated by the color development was calculated by measuring optical density at 540 nm (OD540) with UV-VIS Spectrophotometer.
# PBS standard solution containing 0-10 nmol MDA was prepared by […] with tetramethoxypropane malonaldehyde bis (dimethylacetal) stock solution. Color development was induced with the standard solution, followed by measuring OD540. The generated MDA was quantified by using the standard curve in experiments with the pterocarpan compound of the present invention.
inhibition at 100 µM (hACAT-1) [%],inhibition at 100 µM (hACAT-2) [%],IC50 (LDL) [µM],Inhibitory activity at 100 μM (%) hACAT1 (hACAT-1; 100 µM) [%],Compound
29.7,22.9,43,–,"C=C(C)c1cc2cc3c(cc2o1)OC[C@@]1(O)c2ccc(O)cc2O[C@@H]31 [Formula 2, (6aS,11aS)-2-(pro-1-pene-2-yl)-6a,11a-dihydro-6H-benzofuro[3,2-c]furo[3,2-g]chromene-6a,9-diol]"
35.2,20.3,51.8,–,COc1ccc2c(c1)O[C@H]1c3c(cc(O)c(CC=C(C)C)c3OC)OC[C@@]21O [Formula 3]
14.9,7.9,4.5,–,"COc1cc(O)cc2oc(=O)c3c4ccc(O)cc4oc3c12 [Formula 4, isotrifoliol]"
85.8,67.4,1,85.9,"CC(C)=CCc1c(O)ccc2c1oc(=O)c1c3ccc(O)cc3oc21 [Formula 5, phaseol]"
